Laboratory results published in patent EP0460488B1, “Sulfur-containing heterocyclic compounds” (Takeda Chemical Industries, Ltd., priority 1990, dated 1991).

system: bone resorption; experiment: Study on bone resorption inhibition: 45Ca release from cultured rat fetal bones (method of Raisz); assay type: cell-based, Sprague-Dawley rat; conditions: description for DK (own example numbering); rat fetal bone culture, 2 days with test compound; mean of 5 bones; test concentration not given
Experimental: Bone resorption inhibitory activity was determined according to the method of Raisz [Journal of Clinical Investigation (J. Clin. Invest.) 44, 103-116 (1965)].
(§1) That is, a Sprague-Dawley rat at day 19 of pregnancy was subcutaneously dosed with 50 µCi of 45Ca (a radioisotope of calcium, in CaCl2). On the next day, the animal was laparotomized and the fetuses were removed aseptically. The right and left […] (radii and ulnae) of each rat fetus were dissected from the body under the dissection microscope. The connective tissue and cartilages were removed as far as possible to prepare bone culture specimens. Each piece of bone was incubated in 0.6 ml of BGJb medium (Fitton-Jackson modification [the tradename owned by GIBCO Laboratories, U.S.A.]) containing 2 mg/ml of bovine serum albumin at 37°C for 24 hours. Then, incubation was carried out for additional two days in the above-mentioned medium. The radioactivities of 45Ca in the culture medium and bone were determined and the ratio (%) of 45Ca released from the bone to the medium was calculated according to the following formula. A =(B)/(B + C)x 100 [formula] A = ratio (%) of ^45Ca released from the bone to the medium B = ^45Ca count in the medium C = ^45Ca count in the bone
The bones from the fetuses of the same litter were similarly incubated without addition of the test compound for two days and served as controls.
The values for 5 bones per group were expressed in mean. The ratio (%) of this value for the treatment group to the control value was determined.
as §1, with “of ^45Ca” for “of 45Ca”

Compound | 45Ca release (% to control)
Cc1ccc2c(c1)C(=O)CSC(C(=O)Nc1ccc(Cl)cc1)C2 (centres unmarked) [compound 28] | 61 % to control
methyl trans-4,7-dimethyl-5-oxo-1,2,4,5-tetrahydro-3-benzothiepine-2-carboxylate [Reference Example 32] | 63 % to control
O=C1CSC(C(=O)Nc2ccc(Cl)cc2)Cc2ccc(Cl)cc21 (centres unmarked) [compound 26] | 68 % to control
COc1cc2c(cc1OC)C(=O)CSC(C(=O)Nc1nc(-c3ccccc3)cs1)C2 (centres unmarked) [compound 25] | 69 % to control

same assay, conditions: rat fetal bone culture, 2 days with test compound; mean of 5 bones; ratio of treatment group to control; test concentration not given

Compound | ^45Ca release (% to control)
O=C1CSC(C(=O)Nc2ccc(Cl)cc2)Cc2ccc(Cl)cc21 (centres unmarked) [Example 48] | 68 % to control
COc1cc2c(cc1OC)C(=O)CSC(C(=O)Nc1nc(-c3ccccc3)cs1)C2 (centres unmarked) [Example 47] | 69 % to control
Cc1ccc2c(c1)C(=O)CSC(C(=O)Nc1ccc(Cl)cc1)C2 (centres unmarked) [Example 50] | 61 % to control
Cc1ccc2c(c1)C(=O)CSC(C(=O)N(C)Cc1ccccc1)C2 (centres unmarked) [Example 54] | 63 % to control
